Assay [1] relates to CD4 HIV-1 receptor. Description: Downregulation of CD4 receptor on human lymphocytes and monocytes/macrophages (flow cytometry). It is filed as cell-based. The following applies: summary statement for lymphocytes and monocytes/macrophages (human and monkey cells tested). An excerpt: It is verified in this test that ingenol derivatives of formula 1, when Z=Z2, at concentrations that activate HIV from latency in Jlat cells in example 3, downregulate the expression of CD4 cell receptor on the surface of HIV-human and SIV-pig-tail monkey CD4+T lymphocytes and macrophages. For this experiment PBMC cells from human and monkeys were isolated from peripheral blood with isolation through Ficoll-Hypaque density gradient (mixture of high density hydrophilic neutral polysaccharides that readily dissolves in aqueous solution. “Ficoll” is a trademark of GE Healthcare Bio-Sciences, USA). Thus, PBMC cells from human and monkeys, at concentration of 10^6 cells/mL, were cultured in RPMI medium with 10% fetal bovine serum for 24 hours and adhered cells (monocytes differentiating into macrophages) were separated from the cell supernatant which contained total lymphocytes. Those two distinct populations of cells were exposed to different concentrations of A, B and C derivatives of the invention, and left in culture for 72 hours. After exposure, the cells were stained with specific lymphocyte monoclonals (anti-CD3) and monocytes/macrophages (anti-CD14) simultaneously with an anti-CD4. Thus, the cells were centrifuged at 1000 G for 3 minutes and washed with the same PBS volume (without Ca^2+ and Mg^2+, Cat. No. 9240, Irvine Scientific, USA) containing 2% fetal bovine serum. This wash was repeated 3 times and the cells were suspended in 1×PBS containing a 1/1000 dilution of relevant antibodies and left to incubate for 30 min at 4° C. until being read in flow cytometry. After incubation, 30,000 cells were read in a BD-Excalibur flow cytometer (from Beckton Dickinson and co., USA) and the populations were separated and the CD4 receptor density was estimated at different concentrations of the B derivative, assuming cell density without B derivative as 100%. […]

Assay [2] deals with HIV-1 latent virus in PBMC cells of patient. Briefly: Activation of latent HIV in PBMC from patient under anti-retroviral treatment (semi-nested real time PCR of intracellular vRNA). The following applies: 72 hours. The assay is classed as cell-based. The protocol:
It was tested, in this experiment, the ability of ingenol derivative, of formula I, wherein Z=Z2, mentioned as B, of activating latent cells from patients who were already under anti-retroviral treatment for more than 1 year with undetectable viral load. A patient (identified as MLV) was selected, which had already been under treatment with zidovudine+lamivudine (AZT+3TC) and efavirenz for over 14 months, with undetectable viral load and CD4>500 cells/mm^3. 20 mL of blood was collected from the patient in a EDTA (ethylene diamine tetra acetic acid) tube and PBMC cells were isolated, which were placed in RPMI culture medium with 10% fetal bovine serum and 50 IU/mL of IL2 (interleukin 2), and grown in 2 bottles with 5 mL of identical cells (106/mL) with different selective compositions. 10 μM efavirenz (antiviral) was added to the control bottle to block viral replication that would eventually arise from cultured cells. In another test bottle both efavirenz (10 μM) and the B derivative of the invention (1 μM) were included. […]

Regarding `CC1=CC23C(=O)C(C=C(CO)C(O)C2(O)C1OC(=O)/C=C/c1ccccc1)C1C(CC3C)C1(C)C` (centres unmarked) [A, Ingenol 3-cinnamate], the “downregulation of the main HIV receptor (CD4) on the surface of infection targeted cells” value (shortened to “downregulation of the main HIV receptor”) in assay [1] was “able to downregulate”.
Consider `CCCCCC(=O)OC1C(C)=CC23C(=O)C(C=C(CO)C(O)C12O)C1C(CC3C)C1(C)C` (centres unmarked) [B, Ingenol 3-caproate], for which the “intracellular HIV-1 vRNA” value in assay [2] (1 μM B derivative plus 10 μm efavirenz, FIG. 8) is given as “emergence of intracellular HIV-1 vRNA”. In addition, the “downregulation of the main HIV receptor” value in assay [1] was “able to downregulate”.
As for `CCCCCCCCCCCC(=O)OC1C(C)=CC23C(=O)C(C=C(CO)C(O)C12O)C1C(CC3C)C1(C)C` (centres unmarked) [C, ingenol 3-dodecanoate], the “downregulation of the main HIV receptor” value in assay [1] is “able to downregulate”.
Take `O=C1Nc2ccc(Cl)cc2[C@@](C#CC2CC2)(C(F)(F)F)O1` [efavirenz, reference compound]: the “intracellular HIV-1 vRNA” value in assay [2] (10 μM efavirenz alone (control bottle), FIG. 7) is reported as “did not produce intracellular vRNA”.

Values taken from patent US10105339B2, “Ingenol derivatives in the reactivation of latent HIV” (priority 2012, dated 2018).
